{"source": "paper PMC7665244", "about": "(Developmental cell, 2019)", "target": "hCFTR (human CFTR) (Homo sapiens, UniProt P13569)", "sequence (P13569 whole entry)": "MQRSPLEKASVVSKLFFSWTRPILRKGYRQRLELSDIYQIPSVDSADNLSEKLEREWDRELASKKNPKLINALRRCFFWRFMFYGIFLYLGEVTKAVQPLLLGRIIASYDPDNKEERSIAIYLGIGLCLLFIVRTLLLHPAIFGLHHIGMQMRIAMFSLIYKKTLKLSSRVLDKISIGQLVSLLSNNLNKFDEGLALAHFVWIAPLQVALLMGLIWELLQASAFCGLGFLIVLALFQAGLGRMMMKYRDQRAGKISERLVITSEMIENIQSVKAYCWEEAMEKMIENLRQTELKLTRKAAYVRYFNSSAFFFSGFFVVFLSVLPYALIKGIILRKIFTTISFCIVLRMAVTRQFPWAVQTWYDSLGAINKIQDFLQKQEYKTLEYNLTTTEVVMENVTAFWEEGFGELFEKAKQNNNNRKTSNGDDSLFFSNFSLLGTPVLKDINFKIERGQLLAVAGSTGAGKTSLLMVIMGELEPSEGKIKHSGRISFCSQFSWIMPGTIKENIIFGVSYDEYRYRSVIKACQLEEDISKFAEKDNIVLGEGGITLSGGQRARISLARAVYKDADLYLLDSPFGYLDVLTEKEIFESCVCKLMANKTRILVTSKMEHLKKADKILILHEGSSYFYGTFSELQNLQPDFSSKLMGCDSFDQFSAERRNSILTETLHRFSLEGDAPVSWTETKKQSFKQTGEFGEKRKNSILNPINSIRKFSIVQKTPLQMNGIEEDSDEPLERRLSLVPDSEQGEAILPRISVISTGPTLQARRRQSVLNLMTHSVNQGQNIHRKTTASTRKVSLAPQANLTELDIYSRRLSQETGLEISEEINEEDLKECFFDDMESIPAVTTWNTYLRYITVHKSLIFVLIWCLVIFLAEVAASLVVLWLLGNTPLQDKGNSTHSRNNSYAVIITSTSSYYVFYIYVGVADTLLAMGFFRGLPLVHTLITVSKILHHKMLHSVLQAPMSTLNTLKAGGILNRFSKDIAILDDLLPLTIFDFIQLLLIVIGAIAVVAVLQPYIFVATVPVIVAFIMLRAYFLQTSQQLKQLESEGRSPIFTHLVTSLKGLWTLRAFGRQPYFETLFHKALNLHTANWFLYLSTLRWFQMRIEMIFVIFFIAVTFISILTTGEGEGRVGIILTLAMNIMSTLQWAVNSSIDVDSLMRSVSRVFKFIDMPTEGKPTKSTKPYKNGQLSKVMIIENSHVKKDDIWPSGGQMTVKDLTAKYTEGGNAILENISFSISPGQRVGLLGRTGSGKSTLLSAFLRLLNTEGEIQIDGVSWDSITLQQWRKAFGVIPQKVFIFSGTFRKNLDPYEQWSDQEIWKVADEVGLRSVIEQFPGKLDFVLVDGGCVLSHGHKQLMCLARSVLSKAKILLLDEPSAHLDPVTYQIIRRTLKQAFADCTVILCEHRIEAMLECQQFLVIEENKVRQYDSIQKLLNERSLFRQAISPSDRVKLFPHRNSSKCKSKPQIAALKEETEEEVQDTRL", "assay": "inside-out oocyte macropatch current", "assay_type": "biochemical", "conditions": "1 mM ATP and PKA 127.6 U/mL; potentiator"}
{"smiles": "CC(C)(C)c1cc(C(C)(C)C)c(NC(=O)c2c[nH]c3ccccc3c2=O)cc1O", "note": "[VX-770]", "values": [{"measurement": "fractional potentiation at 0.2 μM", "result": "although hCFTR is potentiated, Lp-CFTR shows no enhancement of function"}]}
